Tests used:
Assay type in all cases: cell-based
Helminthosporium solani [1] = assay: Pure volatile in 1L jars above plates containing the pathogens, colony diameter (Example 2); conditions: 2.5 μL/L volatile, 1L jar, 23 degree C
Experimental: (§1) […] were chosen as prototype volatiles to investigate the use of plant volatiles for the control of potato blemish pathogens. Three main potato blemish pathogens were used in the study: Erwinia carotovora, Colletotrichum coccodes and Helminthosporium solani.
(§2) 1L jars were used. Pure volatile (2.5-10 μt/L) was inserted into the jars onto the side of the jar above 6cm plates containing the pathogens. Controls and treatments were incubated at 23 degree C. until the control filled the plate. Diameter of the colony (mm) from control and treatments were evaluated daily using calipers.

Colletotrichum coccodes [2] = assay: as above; conditions: 2.5 μL/L volatile, 1L jar, 23 degree C
Experimental: as §1, §2

Erwinia carotovora [3] = assay: as above; conditions: 2.5 μL/L volatile, 1L jar, 23 degree C
Experimental: as §1, §2

Helminthosporium solani [4] = assay: Volatile exposure of pathogen cultures on PDA in sealed mason jars, radial growth (Example 1); conditions: pure volatile, 7 days at 23° C
Experimental: (§3) In this study, acetaldehyde and 2E-hexenal were chosen as prototype volatiles in order to investigate the use of plant volatiles for the control of potato blemish pathogens in fresh-pack potato packaging. The two main potato blemish disease pathogens, Colletotrichum coccodes (black dot) and Helminthosporium solani (silver scurf) were used in the study. Cultures of the two pathogens, grown on PDA, were exposed to the pure volatiles in sealed mason jars for 7 days at 23° C. Radial fungal growth and the concentration of the volatile were measured daily and the concentration required to inhibit fungal growth was determined. […] 2E-hexenal could be used to control these and other pathogens and extend the storability and shelf-life of potatoes.

Colletotrichum coccodes [5] = assay: as above; conditions: pure volatile, 7 days at 23° C
Experimental: as §3

Erwinia carotovora [6] = assay: as above; conditions: pure volatile, 7 days at 23° C

Measured: inhibition of pathogen growth

CCC/C=C/C=O [2E-Hexanal]
nearly complete inhibition: Helminthosporium solani [1] | Colletotrichum coccodes [2] | Erwinia carotovora [3]

CCC/C=C/C=O [2E-hexenal]
nearly complete inhibition: Helminthosporium solani [4] | Colletotrichum coccodes [5] | Erwinia carotovora [6]

Source: patent US20130236610A1, “COMPOSITIONS AND METHODS FOR INHIBITING POTATO PATHOGENS” (UNIVERSITY OF IDAHO, priority 2010, published 2013)
